{"source": "patent US20090220562A1", "about": "“Osteogenic and anti-adipogenic oxysterols” (priority 2005, published 2009)", "format_in_all_cases": "cell-based, mouse", "key": {"[1]": {"tested_on": "osteocalcin mRNA", "experiment": "Northern blotting for osteocalcin mRNA in M2-10B4 cells", "settings": "for synergy with oxysterols in induction of osteocalcin: BMP 50 ng/ml with 22S+20S (SS, 2.5 μM)", "protocol": "RNA isolation and Northern blot analysis—Following treatment of cells under appropriate experimental conditions, total RNA was isolated using the RNA isolation kit from Stratagene (La Jolla, Calif., U.S.A.). Total RNA ([…]) was run on a 1% agarose/formaldehyde gel and transferred to Duralon-UV membranes (Strategene, CA, U.S.A.) and cross-linked with UV light. The membranes were hybridized overnight at 60 degree C. with ^32P-labeled mouse osteocalcin cDNA probe, mouse lipoprotein lipase (LPL), mouse adipocyte protein 2 (aP^2) PCR-generated probes, human 28S or 18S rRNA probes obtained from Geneka Biotechnology (Montreal, Quebec, Canada) and Maxim Biotech (San Francisco, Calif., U.S.A.), respectively. The PCR products were generated using primer sets synthesized by Invitrogen (Carlsbad, Calif., U.S.A.) with the following specifications: mouse aP2 gene (accession no. M13261); sense (75-95) 5′-[…]-3′, antisense (362-383) 5′-[…]-3′, generating a PCR product of 309 base pairs. Mouse LPL (accession no. XM—134193); sense (1038-1058) 5′-[…]-3′, antisense (1816-1836) 5′-[…]-3′, generating a PCR product of 799 base pairs. The PCR products were gel-purified and sequenced by the UCLA sequencing core, showing the highest similarity to their respective GenBank entries. Following hybridization, the blots were washed twice at room temperature with 2×SSC+0.1% SDS, and then twice at 60 degree C. with 0.5×SSC+0.1% SDS, and exposed to X-ray film. The extent of gene induction was determined by densitometry.\nAfter 4 and 8 days, total RNA from duplicate samples was isolated and analyzed for osteocalcin (Osc) and 28S rRNA expression by Northern blotting as described. FIG. 3E is a radiogram of Northern blotting for osteocalcin mRNA in M2 cells exposed to a control or combination of oxysterols for 4 or 8 days. FIG. 3F is a bar graph depicting the relative demsometric units of osteocalcin mRNA in M2 cells exposed to a control or combination of oxysterols for 4 -or 8 days. Data from densitometric analysis of the Northern blot is shown in (F) as the average of duplicate samples, normalized to 28S rRNA.\n(§1) Next, a combination of 22R and 20S oxysterols (RS, 2.5 μM each) were added in the presence or absence of SC as indicated. After 3 days, ALP activity was measured as described earlier. […] (B) M2 cells were treated as described in (A) and after 10 days matrix mineralization in cultures was quantified by a ^45Ca incorporation assay as described earlier. […] (C) M2 cells were pretreated with 20 μM SC for 4 hours, followed by the addition of RS in the presence or absence of SC as described above. After 8 days, total RNA was isolated and analyzed for osteocalcin (Osc) and […] expression by Northern blotting as previously described. Data from densitometric analysis of the Northern blot is shown in (D) as the average of duplicate samples, normalized to 18S rRNA. (E) M2 cells at confluence were pretreated for 2 hours with control vehicle (C), or PLA2 inhibitors ACA (25 μM) and AACOCF3 (AAC, 20 μM), in osteogenic medium. Next, a combination of 22R and 20S oxysterols (RS, 2.5 μM) was added in the presence or absence of the inhibitors as indicated. After 3 days, ALP activity was measured as previously described. […] (F) M2 cells were treated as described in (E). After 10 days, matrix mineralization in cultures was quantified using a ^45Ca incorporation assay as previously described. Results from a representative of three experiments are shown, reported as the mean of quadruplicate determinations ±SD, normalized to protein concentration (p<0.01 for RS vs. RS+ACA and RS+AAC).\nALP activity was measured after 2 days, as described. […] (B) M2 cells were treated as described in (A). After 10 days, matrix mineralization in cultures was quantified using a ^45Ca incorporation assay as described. […] (C) M2 cells were treated under similar conditions as those described above. […]"}, "[2]": {"tested_on": "marrow stromal cells", "experiment": "Osteogenic differentiation of marrow stromal cells (marker not specified: ALP activity, osteocalcin mRNA, mineral formation)", "protocol": "The purpose of the study was to identify other osteogenic and anti-adipogenic oxysterols based on the chemical structure of previously identified oxysterols. The ability of such candidate oxysterol molecules to induce the formation of osteoblastic cells in cultures of marrow stromal cells (which are progenitors of osteoblastic cells that make bone) were tested. In order to assess osteogenic differentiation of cells, one or more markers of osteogenic differentiation were measured in untreated cells and cells treated with the test oxysterols. These markers included: alkaline phosphatase activity, osteocalcin mRNA expression and mineral formation in cultures of marrow stromal cells. Activation of either one or more than one marker by a single or combination oxysterols is indicative of their osteogenic property."}, "[3]": {"tested_on": "M2-10B4 marrow stromal cells", "experiment": "Alkaline phosphatase (ALP) activity assay on whole cell extracts of M2-10B4 marrow stromal cells", "settings": "for effect on oxysterol-induced alkaline phosphatase activity: 22R+20S (RS), pretreatment with SC-560 10 μM, ACA 25 μM, AACOCF3 20 μM or PD98059 20 μM, 3 days; for reversal of the effects of COX-1 and PLA2 inhibitors on oxysterol-induced alkaline phosphatase activity: 1 μM PGE2, 25 μM arachidonic acid, data not shown", "protocol": "(§2) Cells: M2-10B4 mouse marrow stromal cell line obtained from American Type Culture Collection (ATCC, Rockville, Md., U.S.A.) was derived from bone marrow stromal cells of a (C57BL/6J x C3H/HeJ) Fl mouse, and support human and murine myelopoiesis in long-term cultures (as per ATCC) and have the ability to differentiate into osteoblastic and adipocytic cells. Unless specified, these cells were cultured in RPMI 1640 containing 10% heat-inactivated FBS, and supplemented with 1 mM sodium pyruvate, 100 U/ml penicillin, and 100 U/ml streptomycin (all from Irvine Scientific).\nCells were always treated at 90% confluence. […]\nas §1, with “Results from a representative of three experiments are shown, reported as the mean of quadruplicate determinations ±SD, normalized to protein concentration (p<0.01 for RS vs. RS+ACA and RS+AAC).” left out"}, "[4]": {"tested_on": "M2-10B4 marrow stromal cells", "experiment": "Matrix mineralization (45Ca incorporation assay, von Kossa staining) in M2-10B4 marrow stromal cells", "settings": "for effect on oxysterol-induced mineralization: 22R+20S (RS), SC-560 10 μM, ACA 25 μM, AACOCF3 20 μM or PD98059 20 μM, 10 days", "protocol": "as §2\nVon Kossa and oil red O staining—Matrix mineralization in cell monolayers was detected by silver nitrate staining as previously described. Oil red O staining for detection of adipocytes was performed as previously described.\n^45Ca incorporation assay—Matrix mineralization in cell monolayers was quantified using the ^45Ca incorporation assay as previously described.\nAfter 14 days, mineralization was identified by a von Kossa staining, which appears black. FIG. 3C is a depiction of von Kossa staining of M2 cells exposed to various conditions.\nAfter 14 days, matrix mineralization in cultures was quantified using a ^45Ca incorporation assay.\nas §1\n(A) M2 cells at confluence were pretreated for four hours with RPMI containing 1% FBS, followed by treatment with control vehicle or 5 μM 20S oxysterol for 1, 4, or 8 hours. Next total cell extracts were prepared and analyzed for levels of native or phosphorylated ERK (pERK) using specific antibodies as previously described. Data from a representative of four experiments are shown, each treatment shown in duplicate samples. (B) M2 cells at confluence were pretreated for 2 hours with control vehicle (C) or 20 μM PD98059 (PD) in osteogenic medium as previously described. Next, a combination of 22R and 20S oxysterols (RS, 5 μM each) were added to appropriate wells as indicated. After 10 days of incubation, matrix mineralization was quantified by the ^45Ca incorporation assay as previously described. […] (C) M2 cells at confluence were pretreated for 2 hours with 20 µM PD98059 (PD) in RPMI containing 5% FBS. Next, the cells were treated with control vehicle (C), 10 μM troglitazone (Tro), or 10 μM of 20S or 22S oxysterols, alone or in combination as indicated. After 10 days, adipocytes were visualized by oil Red O staining and quantified by light microscopy as previously described. […]"}, "[5]": {"settings": "pretreatment, cyclopamine 1-10 μM, DKK-1 1 μg/ml"}}}
{"molecule": "CC(C)CCC[C@@H](C)[C@H]1CC[C@H]2[C@@H]3[C@H](O)C=C4C[C@@H](O)CC[C@]4(C)[C@H]3CC[C@]12C", "note": "[7alpha-hydroxycholesterol, reference compound]", "values": [{"measurement": "levels of osteocalcin mRNA relative to the control", "setting": "[1]; 5 μM, eight days, M2-10B4", "value": "did not appear to significantly affect"}]}
{"molecule": "C[C@@H](CO)CCC[C@@H](C)[C@H]1CC[C@H]2[C@@H]3CC=C4C[C@@H](O)CC[C@]4(C)[C@H]3CC[C@]12C", "note": "[26-hydroxycholesterol]", "values": [{"measurement": "osteogenic property, alone or in combination with originally described oxysterols", "setting": "[2]", "value": "osteoinductive"}]}
{"molecule": "CCCCC/C=C\\C/C=C\\C/C=C\\C/C=C\\CCCC(=O)C(F)(F)F", "note": "[AACOCF3, reference compound]", "values": [{"measurement": "effect on oxysterol-induced alkaline phosphatase activity", "setting": "[3]", "value": "inhibited"}, {"measurement": "effect on oxysterol-induced mineralization", "setting": "[4]", "value": "inhibited"}]}
{"molecule": "CCCCCc1ccc(/C=C/C(=O)Nc2ccccc2C(=O)O)cc1", "note": "[ACA, reference compound]", "values": [{"measurement": "effect on oxysterol-induced alkaline phosphatase activity", "setting": "[3]", "value": "inhibited"}, {"measurement": "effect on oxysterol-induced mineralization", "setting": "[4]", "value": "inhibited"}]}
{"molecule": "CS(=O)(=O)Nc1ccc([N+](=O)[O-])cc1OC1CCCCC1", "note": "[NS-398, reference compound]", "values": [{"measurement": "inhibition of the osteogenic effects of oxysterol combinations", "setting": "[2]; 22R+20S and 22S+20S, SC-560 1-20 μM, NS-398 20 μM (highest non-toxic dose)", "value": "negligible inhibitory effects"}]}
{"molecule": "COc1cccc(-c2cc(=O)c3ccccc3o2)c1N", "note": "[PD98059, reference compound]", "values": [{"measurement": "effect on oxysterol-induced mineralization", "setting": "[4]", "value": "inhibited"}]}
{"molecule": "CCCCC[C@H](O)/C=C/[C@H]1[C@H](O)CC(=O)[C@@H]1C/C=C\\CCCC(=O)O", "note": "[PGE2, prostaglandin E2, reference compound]", "values": [{"measurement": "reversal of the effects of COX-1 and PLA2 inhibitors on oxysterol-induced alkaline phosphatase activity", "setting": "[3]", "value": "reversed"}]}
{"molecule": "COc1ccc(-n2nc(C(F)(F)F)cc2-c2ccc(Cl)cc2)cc1", "note": "[SC-560, reference compound]", "values": [{"measurement": "effect on oxysterol-induced mineralization", "setting": "[4]", "value": "inhibited"}, {"measurement": "effect on oxysterol-induced osteocalcin gene expression", "setting": "[1]; 22R+20S (RS), SC-560 20 μM, 8 days, PD98059 (data not shown)", "value": "inhibited"}]}
{"molecule": "O=S(=O)(c1ccccc1)N(CC(F)(F)F)c1ccc(C(O)(C(F)(F)F)C(F)(F)F)cc1", "note": "[TO-901317, reference compound]", "values": [{"measurement": "effect on alkaline phosphatase activity", "setting": "[3]; 1-10 μM", "value": "dose-dependent inhibition"}, {"measurement": "induction of mineralization", "setting": "[4]; after 10 days", "value": "did not induce"}, {"measurement": "induction of osteocalcin gene expression", "setting": "[1]; after 10 days", "value": "did not induce"}]}
{"molecule": "CCCCC/C=C\\C/C=C\\C/C=C\\C/C=C\\CCCC(=O)O", "note": "[arachidonic acid, reference compound]", "values": [{"measurement": "reversal of the effects of COX-1 and PLA2 inhibitors on oxysterol-induced alkaline phosphatase activity", "setting": "[3]", "value": "reversed"}]}
{"molecule": "C[C@]12CC[C@@H]3c4ccc(O)cc4CC[C@H]3[C@@H]1CC[C@@H]2O", "note": "[beta-estradiol, reference compound]", "values": [{"measurement": "osteogenic properties", "setting": "[2]", "value": "did not have any osteogenic properties"}]}
{"molecule": "C[C@]12CC[C@H]3[C@@H](CCC4=C[C@H](O)CC[C@@H]43)[C@@H]1CC[C@@H]2O", "note": "[estren, reference compound]", "values": [{"measurement": "osteogenic properties", "setting": "[2]", "value": "did not have any osteogenic properties"}]}
{"molecule": "BMP14: bone morphogenic protein 14", "values": [{"measurement": "synergy with oxysterols in induction of alkaline phosphatase activity", "setting": "[3]", "value": "synergistically induced"}, {"measurement": "synergy with oxysterols in induction of mineralization", "setting": "[4]", "value": "synergistically induced"}, {"measurement": "synergy with oxysterols in induction of osteocalcin", "setting": "[1]; eight days", "value": "synergistic induction"}]}
{"molecule": "DKK-1: Wnt signaling inhibitor", "values": [{"measurement": "effect on SS-induced alkaline phosphatase (ALP) activity", "setting": "[3]; [5]", "value": "inhibited"}, {"measurement": "effect on SS-induced mineralization", "setting": "[4]; [5]", "value": "inhibited"}, {"measurement": "effect on SS-induced osteocalcin mRNA expression", "setting": "[1]; [5]", "value": "inhibited"}]}
{"molecule": "BMP7: bone morphogenic protein 7 (protein, UniProt P18075 293-431, looked up) Bone morphogenetic protein 7: STGSKQRSQNRSKTPKNQEALRMANVAENSSSDQRQACKKHELYVSFRDLGWQDWIIAPEGYAAYYCEGECAFPLNSYMNATNHAIVQTLVHFINPETVPKPCCAPTQLNAISVLYFDDSSNVILKKYRNMVVRACGCH", "values": [{"measurement": "synergy with oxysterols in induction of alkaline phosphatase activity", "setting": "[3]", "value": "synergistically induced"}, {"measurement": "synergy with oxysterols in induction of mineralization", "setting": "[4]", "value": "synergistically induced"}, {"measurement": "synergy with oxysterols in induction of osteocalcin", "setting": "[1]; eight days", "value": "synergistic induction"}]}
